According to patent US20250059175A1, “Mutant Pi3k-Alpha Inhibitors And Their Use As Pharmaceuticals” (Prelude Therapeutics Incorporated, priority 2023, published 2025):

system: phosphorylation of AKT on Ser473 (PI3K pathway) in T-47D (heterozygous PIK3CA H1047R) cell line; assay: PI3K pathway activation assay (pAKT Ser473 HTRF), T-47D cells; assay type: cell-based; settings: Homo sapiens, T47D, 2 h, read-out: T47D pAKT IC50
Procedure: The inhibitory activity of the compounds of the disclosure was evaluated by measuring phosphorylation of AKT on Ser473 as a readout of the PI3K pathway using HTRF (CisBio catalog number: 64AKSPE). These studies were conducted in the T-47D (heterozygous PIK3CA H1047R) and SKBR3 (PIK3CA WT) cell lines. Cells were maintained in a 37° C. incubator at 5% CO2 in the following media: T-47D: RPMI 1640, ATCC© Modification (Gibco, A10491-01) supplemented with 10% v/v FBS (Gibco, 26140-079), 1% penicillin streptomycin (Gibco, 15140-122), and 7.4 ug/mL insulin (MilliporeSigma, I9278); SKBR3: McCoy's 5a (Modified) Medium (Gibco, 16600-082) supplemented with 10% v/v FBS (Gibco, 26140-079). Cells were seeded in 384-well plates at a density of 4,000 cells/well. Compounds dissolved in DMSO were added using a digital dispense (D300E, Tecan) 10-point serial dilution. After two hours of treatment, cells were lysed for thirty minutes and then incubated with detection reagents per HTRF kit material and manufacturer's instructions. Fluorescence signal was measured with a multimode plate reader (Envision 2105, Perkin Elmer). Fluorescent signal was normalized to background and DMSO controls to obtain percent inhibition/activity for each compound.

Row | Structure (SMILES) | IC50 [nM]
1 | Cc1cc([C@@H](C)Nc2ccc(Cl)nc2C(=O)O)nc(N2C(=O)OC[C@@H]2Cc2ccccc2Br)c1 [Example 22, 3-(((R)-1-(6-((S)-4-(2-Bromobenzyl)-2-oxooxazolidin-3-yl)-4-methylpyridin-2-yl)ethyl)amino)-6-chloropicolinic acid] | 100 to 1000

same assay, conditions: Homo sapiens, T47D, 2 h; T-47D (heterozygous PIK3CA H1047R) cells, two hours of treatment, pAKT Ser473 HTRF; read-out: T47D pAKT IC50

Row | Structure (SMILES) | IC50 [nM]
2 | CC(Nc1ccc(Cl)nc1C(=O)O)c1cc(Cl)cc(N2C(=O)OC[C@@H]2Cc2ccccc2)c1 (stereo partly drawn) [Example 6, 3-((1-(3-((S)-4-Benzyl-2-oxooxazolidin-3-yl)-5-chlorophenyl)ethyl)amino)-6-chloropicolinic acid] | 100 to 1000
3 | Cc1cccc(C[C@H]2COC(=O)N2c2cc(F)cc([C@@H](C)Nc3ccc(Cl)nc3C(=O)O)c2)c1 [Example 62, 6-Chloro-3-(((R)-1-(3-fluoro-5-((S)-4-(3-methylbenzyl)-2-oxooxazolidin-3-yl)phenyl)ethyl)amino)picolinic acid] | 100 to 1000
4 | CC(Nc1ccc(F)nc1C(=O)O)c1cc(N2C(=O)OC[C@@H]2Cc2ccccc2)cc(C(F)(F)F)c1 (stereo partly drawn) [Example 8, 3-((1-(3-((S)-4-Benzyl-2-oxooxazolidin-3-yl)-5-(trifluoromethyl)phenyl)ethyl)amino)-6-fluoropicolinic acid] | 1000 to 10000
5 | Cc1cc(C(C)Nc2ccc(C(F)(F)F)nc2C(=O)O)nc(N2C(=O)OC[C@@H]2Cc2ccccc2)c1 (single isomer, unassigned) [Example 15] | 1000 to 10000
6 | Cc1cc(C(C)Nc2ccc(Cl)nc2C(=O)O)cc(N2C(=O)OC[C@@H]2Cc2ccccc2)c1 (single isomer, unassigned) [Example 2] | 100 to 1000
7 | CON(C)C(=O)c1ccc(C[C@H]2COC(=O)N2c2cc(C)cc([C@@H](C)Nc3ccc(Cl)nc3C(=O)O)n2)cc1 [Example 52, 6-Chloro-3-(((R)-1-(6-((S)-4-(4-(methoxy(methyl)carbamoyl)benzyl)-2-oxooxazolidin-3-yl)-4-methylpyridin-2-yl)ethyl)amino)picolinic acid] | 100 to 1000
8 | Cc1cc([C@@H](C)Nc2ccc(Cl)nc2C(=O)O)nc(N2C(=O)OC[C@]2(C)Cc2ccccc2)c1 [Example 54, 3-(((R)-1-(6-((S)-4-Benzyl-4-methyl-2-oxooxazolidin-3-yl)-4-methylpyridin-2-yl)ethyl)amino)-6-chloropicolinic acid] | 100 to 1000
9 | Cc1cc([C@@H](C)Nc2ccc(Cl)nc2C(=O)O)nc(N2C(=O)OC[C@@H]2Cc2cc(C)ncc2F)c1 [Example 30, 6-Chloro-3-(((R)-1-(6-((S)-4-((5-fluoro-2-methylpyridin-4-yl)methyl)-2-oxooxazolidin-3-yl)-4-methylpyridin-2-yl)ethyl)amino)picolinic acid] | 100 to 1000
10 | Cc1cc([C@@H](C)Nc2ccc(Cl)nc2C(=O)O)cc(N2C(=O)OC[C@@H]2Cc2ccc(Br)cc2)c1 [Example 9, 3-(((R)-1-(3-((S)-4-(4-Bromobenzyl)-2-oxooxazolidin-3-yl)-5-methylphenyl)ethyl)amino)-6-chloropicolinic acid] | 1000 to 10000
11 | Cc1cc(C(C)Nc2ccc(C)nc2C(=O)O)nc(N2C(=O)OC[C@@H]2Cc2ccccc2)c1 (single isomer, unassigned) [Example 14] | 100 to 1000
12 | Cc1cc([C@@H](C)Nc2ccc(Cl)nc2C(=O)O)nc(N2C(=O)COC[C@@H]2Cc2ccccc2)c1 [Example 57, 3-(((R)-1-(6-((S)-3-Benzyl-5-oxomorpholino)-4-methylpyridin-2-yl)ethyl)amino)-6-chloropicolinic acid] | 100 to 1000
13 | Cc1cc([C@@H](C)Nc2ccc(Cl)nc2C(=O)O)nc(N2C(=O)OC[C@@H]2Cc2ccc(C(=O)OC(C)(C)C)cc2)c1 [Example 25, 3-(((R)-1-(6-((S)-4-(4-(tert-Butoxycarbonyl)benzyl)-2-oxooxazolidin-3-yl)-4-methylpyridin-2-yl)ethyl)amino)-6-chloropicolinic acid] | 100 to 1000
14 | Cc1cc([C@@H](C)Nc2ccc(Cl)nc2C(=O)O)nc(N2C(=O)OC[C@@H]2Cc2nn(C)c3ccccc23)c1 [Example 38, 6-Chloro-3-(((R)-1-(4-methyl-6-((S)-4-((1-methyl-1H-indazol-3-yl)methyl)-2-oxooxazolidin-3-yl)pyridin-2-yl)ethyl)amino)picolinic acid] | 100 to 1000
15 | Cc1cc([C@@H](C)Nc2ccc(Cl)nc2C(=O)O)nc(N2C(=O)OC[C@@H]2Cc2ccc3c(cnn3C)c2)c1 [Example 42, 6-Chloro-3-(((R)-1-(4-methyl-6-((S)-4-((1-methyl-1H-indazol-5-yl)methyl)-2-oxooxazolidin-3-yl)pyridin-2-yl)ethyl)amino)picolinic acid] | < 100
16 | Cc1cc([C@@H](C)Nc2ccc(Cl)nc2C(=O)O)nc(N2C(=O)OC[C@@H]2Cc2cn(C)c3ccccc23)c1 [Example 37, 6-Chloro-3-(((R)-1-(4-methyl-6-((S)-4-((1-methyl-1H-indol-3-yl)methyl)-2-oxooxazolidin-3-yl)pyridin-2-yl)ethyl)amino)picolinic acid] | < 100
17 | Cc1cc([C@@H](C)Nc2ccc(Cl)nc2C(=O)O)nc(N2C(=O)OC[C@@H]2Cc2cn(C)nc2C)c1 [Example 35, 6-Chloro-3-(((R)-1-(6-((S)-4-((1,3-dimethyl-1H-pyrazol-4-yl)methyl)-2-oxooxazolidin-3-yl)-4-methylpyridin-2-yl)ethyl)amino)picolinic acid] | 100 to 1000
18 | Cc1cc([C@@H](C)Nc2ccc(Cl)nc2C(=O)O)nc(N2C(=O)OC[C@@H]2Cc2cccc3ccccc23)c1 [Example 31, 6-Chloro-3-(((R)-1-(4-methyl-6-((S)-4-(naphthalen-1-ylmethyl)-2-oxooxazolidin-3-yl)pyridin-2-yl)ethyl)amino)picolinic acid] | 100 to 1000
19 | Cc1cc([C@@H](C)Nc2ccc(Cl)nc2C(=O)O)nc(N2C(=O)OC[C@@H]2Cc2cn(C)nc2F)c1 [Example 36, 6-Chloro-3-(((R)-1-(6-((S)-4-((3-fluoro-1-methyl-1H-pyrazol-4-yl)methyl)-2-oxooxazolidin-3-yl)-4-methylpyridin-2-yl)ethyl)amino)picolinic acid] | 100 to 1000
20 | Cc1cc([C@@H](C)Nc2ccc(Cl)nc2C(=O)O)nc(N2C(=O)OCC[C@@H]2Cc2ccccc2)c1 [Example 56, 3-(((R)-1-(6-((S)-4-Benzyl-2-oxo-1,3-oxazinan-3-yl)-4-methylpyridin-2-yl)ethyl)amino)-6-chloropicolinic acid] | 100 to 1000
21 | C[C@@H](Nc1ccc(Cl)nc1C(=O)O)c1cc(F)cc(N2C(=O)OC[C@@H]2Cc2ccccc2)c1 [Example 10, 3-(((R)-1-(3-((S)-4-Benzyl-2-oxooxazolidin-3-yl)-5-fluorophenyl)ethyl)amino)-6-chloropicolinic acid] | < 100
22 | Cc1cc([C@@H](C)Nc2ccc(Cl)nc2C(=O)O)nc(N2C(=O)OC[C@@H]2Cc2ccc(C(=O)N(C)C)cc2)c1 [Example 51, 6-Chloro-3-(((R)-1-(6-((S)-4-(4-(dimethylcarbamoyl)benzyl)-2-oxooxazolidin-3-yl)-4-methylpyridin-2-yl)ethyl)amino)picolinic acid] | 100 to 1000
23 | Cc1cc([C@@H](C)Nc2ccc(Cl)nc2C(=O)O)nc(N2C(=O)OC[C@@H]2Cc2ccnn2C)c1 [Example 34, 6-Chloro-3-(((R)-1-(4-methyl-6-((S)-4-((1-methyl-1H-pyrazol-5-yl)methyl)-2-oxooxazolidin-3-yl)pyridin-2-yl)ethyl)amino)picolinic acid] | 100 to 1000

same assay, conditions: T-47D (heterozygous PIK3CA H1047R) cells, two hours of treatment, pAKT Ser473 HTRF; read-out: T47D pAKT IC50

Row | Structure (SMILES) | IC50 [nM]
24 | Cc1cc([C@@H](C)Nc2ccc(Cl)nc2C(=O)O)nc(N2C(=O)OC[C@@H]2Cc2cccn3nccc23)c1 [Example 45, 6-Chloro-3-(((R)-1-(4-methyl-6-((S)-2-oxo-4-(pyrazolo[1,5-α]pyridin-4-ylmethyl)oxazolidin-3-yl)pyridin-2-yl)ethyl)amino)picolinic acid] | < 100
25 | Cc1cc([C@@H](C)Nc2ccc(Cl)nc2C(=O)O)nc(N2C(=O)OC[C@@H]2Cc2ccn3nccc3c2)c1 [Example 40, 6-Chloro-3-(((R)-1-(4-methyl-6-((S)-2-oxo-4-(pyrazolo[1,5-α]pyridin-5-ylmethyl)oxazolidin-3-yl)pyridin-2-yl)ethyl)amino)picolinic acid] | < 100
26 | Cc1cc([C@@H](C)Nc2ccc(Cl)nc2C(=O)O)nc(N2C(=O)OC[C@@H]2Cc2cnn3ccccc23)c1 [Example 46, 6-Chloro-3-(((R)-1-(4-methyl-6-((S)-2-oxo-4-(pyrazolo[1,5-α]pyridin-3-ylmethyl)oxazolidin-3-yl)pyridin-2-yl)ethyl)amino)picolinic acid] | < 100
27 | Cc1cc([C@@H](C)Nc2ccc(Cl)nc2C(=O)O)nc(N2C(=O)OC[C@@H]2Cc2ccc3cncn3c2)c1 [Example 41, 6-Chloro-3-(((R)-1-(6-((S)-4-(imidazo[1,5-α]pyridin-6-ylmethyl)-2-oxooxazolidin-3-yl)-4-methylpyridin-2-yl)ethyl)amino)picolinic acid] | 100 to 1000
28 | Cc1cc([C@@H](C)Nc2ccc(Cl)nc2C(=O)O)nc(N2C(=O)OC[C@@H]2Cc2cccn3ccnc23)c1 [Example 44, 6-Chloro-3-(((R)-1-(6-((S)-4-(imidazo[1,2-α]pyridin-8-ylmethyl)-2-oxooxazolidin-3-yl)-4-methylpyridin-2-yl)ethyl)amino)picolinic acid] | 100 to 1000
